Assay results reported in ChEMBL document CHEMBL1240322, “Small-molecule regulation of zebrafish gene expression” (Nat Chem Biol, 2007).
Positions count from the first letter of the chain named. Active and inactive are the calls of the source. The rule behind the calls is not given here.

Columns and labels:
[1] = molecular target: T1, Ecdysone receptor (Bombyx mori) (UniProt P49881); test: (§1) Activation of Bombyx mori Ecdysone receptor (amino acids 272-606) expressed in HEK293 cells transfected with cytomegalovirus promoter-driven expression construct encoding chimeric transactivator composed of DBD and homodimerization domains of yeast Gal4 (amino acids 1-146) and VP16 activation domain (amino acids (413-456) at 10 uM exposed for 16 hrs by Gal4 dependent luciferase reportre gene assay relative to untreated control; format: cell-based
T1 sequence (whole entry): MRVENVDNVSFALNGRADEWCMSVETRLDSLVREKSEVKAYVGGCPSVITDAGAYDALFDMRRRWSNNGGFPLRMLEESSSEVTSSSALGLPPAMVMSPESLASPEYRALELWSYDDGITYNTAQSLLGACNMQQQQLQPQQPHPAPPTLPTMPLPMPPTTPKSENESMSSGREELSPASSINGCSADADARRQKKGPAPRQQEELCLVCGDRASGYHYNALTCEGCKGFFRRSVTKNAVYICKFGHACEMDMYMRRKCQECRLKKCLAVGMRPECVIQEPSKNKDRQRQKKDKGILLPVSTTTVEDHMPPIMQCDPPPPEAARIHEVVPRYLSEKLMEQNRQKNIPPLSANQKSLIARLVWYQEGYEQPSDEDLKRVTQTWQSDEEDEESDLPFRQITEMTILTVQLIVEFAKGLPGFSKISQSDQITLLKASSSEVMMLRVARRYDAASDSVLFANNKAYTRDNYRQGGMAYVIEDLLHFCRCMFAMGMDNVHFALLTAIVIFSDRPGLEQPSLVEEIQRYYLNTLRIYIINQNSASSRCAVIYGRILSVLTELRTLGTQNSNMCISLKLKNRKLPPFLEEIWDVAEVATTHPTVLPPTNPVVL

[2] = molecular target: T1, Ecdysone receptor (Bombyx mori); test: as §1, with “(468-490)” for “(413-456)”; format: cell-based
[3] = molecular target: T1, Ecdysone receptor (Bombyx mori); test: as §1, with “(413-490)” for “(413-456)”; format: cell-based
[4] = molecular target: T1, Ecdysone receptor (Bombyx mori); test: as §1, with “(413-468)” for “(413-456)”; format: cell-based
[5] = molecular target: T1, Ecdysone receptor (Bombyx mori); test: as §1, with “(413-476)” for “(413-456)”; format: cell-based
Danio rerio [6] = test: Toxicity in zebrafish AB embryos assessed as induction of patterning deffects at 10 uM dosed every 24 hrs measured 72 hrs post fertilization; format: organism-based; details: in vivo
[7] = molecular target: T1, Ecdysone receptor (Bombyx mori); test: as §1, with “(456-490)” for “(413-456)”; format: cell-based
[8] = molecular target: T1, Ecdysone receptor (Bombyx mori); test: as §1, with “AB zebrafish embryos” for “HEK293 cells”, “(413-490)” for “(413-456)”
[9] = tested on: T2, Ecdysone receptor (Bombyx mori), P49881 [V454I,Y474E]; test: as §1, with “receptor V454I and Y474E mutant” for “receptor”, “272-606)-mediated mylz2 gene expression” for “272-606)”, “AB zebrafish embryos” for “HEK293 cells”, “(468-490) assessed as mylz2-promoter driven fats skeletal muscle specific GFP expression” for “(413-456)”, “during 3 to 48” for “for 16”, “hrs post fertilization” for “hrs”
T2 sequence (whole entry): T1 sequence (whole entry) with V454I, Y474E

[10] = molecular target: T1, Ecdysone receptor (Bombyx mori); test: as §1, with “AB zebrafish embryos” for “HEK293 cells”, “([…])” for “(413-456)”
Danio rerio [11] = species: Danio rerio; test: Toxicity in zebrafish AB embryos assessed as induction of patterning deffects at 10 uM single dose measured 72 hrs post fertilization; format: organism-based; details: in vivo
[12] = molecular target: T1, Ecdysone receptor (Bombyx mori); test: as §1, with “AB zebrafish embryos” for “HEK293 cells”
[13] = tested on: T2, Ecdysone receptor (Bombyx mori), P49881 [V454I,Y474E]; test: as §1, with “receptor V454I and Y474E mutant” for “receptor”, “in AB zebrafish embryos” for “in HEK293 cells”, “acids (468-490)” for “acids (413-456)”, “at 50” for “at 10”, “for 2 to 6” for “for 16”, “hrs at 4 hrs post fertilization” for “hrs”
[14] = tested on: T2, Ecdysone receptor (Bombyx mori), P49881 [V454I,Y474E]; test: as §1, with “receptor V454I and Y474E mutant” for “receptor”, “AB zebrafish embryos” for “HEK293 cells”, “(456-490)” for “(413-456)”
[15] = tested on: T2, Ecdysone receptor (Bombyx mori), P49881 [V454I,Y474E]; test: (§2) Induction of nuclear translocation of Bombyx mori Ecdysone receptor V454I and Y474E mutant (amino acids 272-606) expressed in AB zebrafish embryos transfected with cytomegalovirus promoter-driven expression construct encoding chimeric transactivator composed of DBD and homodimerization domains of yeast Gal4 (amino acids 1-146) and VP16 activation domain (amino acids (468-490) at 1 uM exposed for 30 mins at 4 hrs post fertilization by Gal4 dependent luciferase reportre gene assay relative to untreated control
[16] = molecular target: T1, Ecdysone receptor (Bombyx mori); test: as §1, with “AB zebrafish embryos” for “HEK293 cells”, “(468-490)” for “(413-456)”
[17] = molecular target: T1, Ecdysone receptor (Bombyx mori); test: as §1, with “AB zebrafish embryos” for “HEK293 cells”, “(413-476)” for “(413-456)”
[18] = molecular target: T1, Ecdysone receptor (Bombyx mori); test: as §1, with “AB zebrafish embryos” for “HEK293 cells”, “(413-468)” for “(413-456)”
[19] = tested on: T2, Ecdysone receptor (Bombyx mori), P49881 [V454I,Y474E]; test: as §1, with “receptor V454I and Y474E mutant” for “receptor”, “AB zebrafish embryos” for “HEK293 cells”, “(468-490)” for “(413-456)”
[20] = tested on: T2, Ecdysone receptor (Bombyx mori), P49881 [V454I,Y474E]; test: as §2, with “Activation of” for “Induction of nuclear translocation of”, “acids 272-606)-mediated myl7 gene expression” for “acids 272-606)”, “(468-490) assessed as myl7-promoter driven heart specific GFP expression” for “(468-490)”, “at 10” for “at 1”, “exposed during 3 to 48” for “exposed for 30 mins at 4”

CC(C)CC[C@@H](O)[C@](C)(O)[C@H]1CC[C@@]2(O)C3=CC(=O)[C@@H]4C[C@@H](O)[C@@H](O)C[C@]4(C)[C@H]3CC[C@]12C [PONASTERONE A]
fold change (FC) [1]: 26.1 | fold change (FC) [2]: 19.5 | fold change (FC) [3]: 6.05 | fold change (FC) [4]: 44 | fold change (FC) [5]: 18.7 | Activity (Danio rerio [6]): Non-toxic | fold change (FC) [7]: 55.5

Cc1cc(C)cc(C(=O)N(NC(=O)c2ccc3c(c2C)OCCO3)C(C)(C)C)c1
Activity (Danio rerio [6]): Non-toxic

CCc1ccc(C(=O)NN(C(=O)c2cc(C)cc(C)c2)C(C)(C)C)cc1 [TEBUFENOZIDE]
fold change (FC) [1]: 139 | fold change (FC) [8]: 0.8 | Activity [9]: 69% | fold change (FC) [10]: 42.2 | Activity (Danio rerio [11]): Non-toxic | fold change (FC) [12]: 1.13 | fold change (FC) [2]: 880 | Activity [13]: Active | fold change (FC) [3]: 14.5 | fold change (FC) [4]: 114 | fold change (FC) [14]: 212 | Activity [15]: Active | fold change (FC) [16]: 113 | fold change (FC) [5]: 57 | fold change (FC) [17]: 1.73 | Activity (Danio rerio [6]): Non-toxic | fold change (FC) [18]: 5.05 | fold change (FC) [19]: 1070 | Activity [20]: 44% | fold change (FC) [7]: 1420

COc1cccc(C(=O)NN(C(=O)c2cc(C)cc(C)c2)C(C)(C)C)c1C [METHOXYFENOZIDE]
Activity (Danio rerio [6]): Non-toxic
